# According to ChEMBL document CHEMBL1139208, “An efficient and stereoselective dearylation of asarinin and sesamin tetrahydrofurofuran lignans to acuminatolide by methyltrioxorhenium/H(2)O(2) and UHP systems” (J Nat Prod, 2007):
# System: NIH3T3
# Experiment: Cytotoxicity against murine 3T3 cells by MTT assay
# Format: cell-based
# Settings: Mus musculus
row,SMILES,IC50 [nM]
1,c1cc2c(cc1[C@H]1OC[C@H]3[C@@H]1CO[C@H]3c1ccc3c(c1)OCO3)OCO2 [ASARININ],200
2,O=C1OC[C@H]2[C@@H]1CO[C@@H]2c1ccc2c(c1)OCO2,> 20000
3,O=C(O)[C@H]1CO[C@@H](c2ccc3c(c2)OCO3)[C@H]1CO,3000
4,O=C1OC[C@H]2[C@@H]1CO[C@H]2c1ccc2c(c1)OCO2,> 20000
